According to PubChem BioAssay AID1963433 (Molecular Pharmacology Branch, DTP, NCI, 2024):

Test system: 772245-204-R-J1-PDC complex spheroid growth
Assay: Anticancer human tumor 772245-204-R-J1-PDC patient-derived rhabdomyosarcoma cell line growth inhibition [Asc]
Settings: for IC50: curve of first compound; for viability, T/C: stronger effect = lower value
Method in brief: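 Complex solid-tumor spheroids incorporating human endothelial and mesenchymal stem cells received single agents or combinations over half-log dilution ranges anchored to clinical Cmax.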

[1] = second compound 0.1 µM, first compound 0.0316 µM
[2] = second compound 0.1 µM, first compound 0.1 µM
[3] = second compound 0.1 µM, first compound 0.316 µM
[4] = second compound 0.1 µM, first compound 1 µM
[5] = second compound 0.316 µM, first compound 0.0316 µM
[6] = second compound 0.316 µM, first compound 0.1 µM
[7] = second compound 0.316 µM, first compound 0.316 µM
[8] = second compound 0.316 µM, first compound 1 µM
[9] = second compound 1 µM, first compound 0.0316 µM
[10] = second compound 1 µM, first compound 0.1 µM
[11] = second compound 1 µM, first compound 0.316 µM
[12] = second compound 1 µM, first compound 1 µM
[13] = second compound 3.16 µM, first compound 0.0316 µM
[14] = second compound 3.16 µM, first compound 0.1 µM
[15] = second compound 3.16 µM, first compound 0.316 µM
[16] = second compound 3.16 µM, first compound 1 µM
[17] = second compound 10 µM, first compound 0.0316 µM
[18] = second compound 10 µM, first compound 0.1 µM
[19] = second compound 10 µM, first compound 0.316 µM
[20] = second compound 10 µM, first compound 1 µM
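Note: compound exposure lasted seven days.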
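Throughout, for viability, T/C: 100% = DMSO vehicle control viability.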

C#Cc1c(F)ccc2cc(O)cc(-c3ncc4c(N5CC6CCC(C5)N6)nc(OCC56CCCN5CC(F)C6)nc4c3F)c12 (stereo not given) + Cc1c(S(C)(=O)=O)c(-c2cc(F)cc(N3CCN(c4ccc(NS(=O)(=O)c5ccc(NC(CCN6CCC(C(=O)OCCCP(=O)(O)O)CC6)CSc6ccccc6)c(S(=O)(=O)C(F)(F)F)c5)cc4)CC3)c2)c(-c2ccc(Cl)cc2)n1C(C)C
IC50 (second compound 0.1 µM): 9.71 µM
IC50 (second compound 0.316 µM): 2.03 µM
IC50 (second compound 1 µM): 3.74 µM
IC50 (second compound 3.16 µM): < 0.0316 µM
IC50 (second compound 10 µM): 1.03 µM
viability, T/C [1]: 72.8%
viability, T/C [2]: 93.2%
viability, T/C [3]: 85.6%
viability, T/C [4]: 71.6%
viability, T/C (second compound 0.1 µM, first compound 3.16 µM): 72.7%
viability, T/C (second compound 0.1 µM, first compound 10 µM): 49%
viability, T/C [5]: 60.4%
viability, T/C [6]: 66.2%
viability, T/C [7]: 62.3%
viability, T/C [8]: 56%
viability, T/C (second compound 0.316 µM, first compound 3.16 µM): 46.3%
viability, T/C (second compound 0.316 µM, first compound 10 µM): 38.2%
viability, T/C [9]: 49.8%
viability, T/C [10]: 55.4%
viability, T/C [11]: 51.5%
viability, T/C [12]: 56.8%
viability, T/C (second compound 1 µM, first compound 3.16 µM): 54.1%
viability, T/C (second compound 1 µM, first compound 10 µM): 29.7%
viability, T/C [13]: 49.8%
viability, T/C [14]: 46.7%
viability, T/C [15]: 47.1%
viability, T/C [16]: 37%
viability, T/C (second compound 3.16 µM, first compound 3.16 µM): 30.7%
viability, T/C (second compound 3.16 µM, first compound 10 µM): 13.8%
viability, T/C [17]: 44%
viability, T/C [18]: 55.5%
viability, T/C [19]: 44%
viability, T/C [20]: 58.3%
viability, T/C (second compound 10 µM, first compound 3.16 µM): 34%
viability, T/C (second compound 10 µM, first compound 10 µM): 18.5%

CNC(C)C(=O)NC1CN(S(=O)(=O)c2cccc(S(=O)(=O)N3CCC4CCC(C(=O)NC(c5ccccc5)c5ccccc5)N4C(=O)C(NC(=O)C(C)NC)C3)c2)CCC2CCC(C(=O)NC(c3ccccc3)c3ccccc3)N2C1=O (stereo not given) + Cc1c(S(C)(=O)=O)c(-c2cc(F)cc(N3CCN(c4ccc(NS(=O)(=O)c5ccc(NC(CCN6CCC(C(=O)OCCCP(=O)(O)O)CC6)CSc6ccccc6)c(S(=O)(=O)C(F)(F)F)c5)cc4)CC3)c2)c(-c2ccc(Cl)cc2)n1C(C)C
IC50 (second compound 0.1 µM): > 1 µM
IC50 (second compound 0.316 µM): 0.072 µM
IC50 (second compound 1 µM): < 0.00316 µM
IC50 (second compound 3.16 µM): < 0.00316 µM
IC50 (second compound 10 µM): < 0.00316 µM
viability, T/C (second compound 0.1 µM, first compound 0.00316 µM): 79.9%
viability, T/C (second compound 0.1 µM, first compound 0.01 µM): 66.3%
viability, T/C [1]: 72.7%
viability, T/C [2]: 64.8%
viability, T/C [3]: 63.5%
viability, T/C [4]: 63%
viability, T/C (second compound 0.316 µM, first compound 0.00316 µM): 56.1%
viability, T/C (second compound 0.316 µM, first compound 0.01 µM): 56.5%
viability, T/C [5]: 55%
viability, T/C [6]: 45.8%
viability, T/C [7]: 45.2%
viability, T/C [8]: 44.5%
viability, T/C (second compound 1 µM, first compound 0.00316 µM): 43%
viability, T/C (second compound 1 µM, first compound 0.01 µM): 53.5%
viability, T/C [9]: 37.9%
viability, T/C [10]: 37.1%
viability, T/C [11]: 35.2%
viability, T/C [12]: 39.1%
viability, T/C (second compound 3.16 µM, first compound 0.00316 µM): 31.4%
viability, T/C (second compound 3.16 µM, first compound 0.01 µM): 32.8%
viability, T/C [13]: 31.6%
viability, T/C [14]: 29.5%
viability, T/C [15]: 29.8%
viability, T/C [16]: 25%
viability, T/C (second compound 10 µM, first compound 0.00316 µM): 32.2%
viability, T/C (second compound 10 µM, first compound 0.01 µM): 41.5%
viability, T/C [17]: 31.4%
viability, T/C [18]: 25.2%
viability, T/C [19]: 23.7%
viability, T/C [20]: 22.3%

Cc1nc(N2CCC3(CC2)COC(C)C3N)c(CO)nc1Sc1ccnc(N)c1Cl (stereo not given) + Cc1c(S(C)(=O)=O)c(-c2cc(F)cc(N3CCN(c4ccc(NS(=O)(=O)c5ccc(NC(CCN6CCC(C(=O)OCCCP(=O)(O)O)CC6)CSc6ccccc6)c(S(=O)(=O)C(F)(F)F)c5)cc4)CC3)c2)c(-c2ccc(Cl)cc2)n1C(C)C
IC50 (second compound 0.1 µM): 2.23 µM
IC50 (second compound 0.316 µM): 0.644 µM
IC50 (second compound 1 µM): 0.369 µM
IC50 (second compound 3.16 µM): 0.0862 µM
IC50 (second compound 10 µM): 0.444 µM
viability, T/C (second compound 0.1 µM, first compound 0.00949 µM): 90.3%
viability, T/C (second compound 0.1 µM, first compound 0.03 µM): 90.2%
viability, T/C (second compound 0.1 µM, first compound 0.0949 µM): 85%
viability, T/C (second compound 0.1 µM, first compound 0.3 µM): 71%
viability, T/C (second compound 0.1 µM, first compound 0.949 µM): 63.7%
viability, T/C (second compound 0.1 µM, first compound 3 µM): 45.4%
viability, T/C (second compound 0.316 µM, first compound 0.00949 µM): 72.6%
viability, T/C (second compound 0.316 µM, first compound 0.03 µM): 76.3%
viability, T/C (second compound 0.316 µM, first compound 0.0949 µM): 70.9%
viability, T/C (second compound 0.316 µM, first compound 0.3 µM): 57%
viability, T/C (second compound 0.316 µM, first compound 0.949 µM): 46.8%
viability, T/C (second compound 0.316 µM, first compound 3 µM): 31.2%
viability, T/C (second compound 1 µM, first compound 0.00949 µM): 47.4%
viability, T/C (second compound 1 µM, first compound 0.03 µM): 63.7%
viability, T/C (second compound 1 µM, first compound 0.0949 µM): 68.6%
viability, T/C (second compound 1 µM, first compound 0.3 µM): 47.9%
viability, T/C (second compound 1 µM, first compound 0.949 µM): 38.3%
viability, T/C (second compound 1 µM, first compound 3 µM): 20.3%
viability, T/C (second compound 3.16 µM, first compound 0.00949 µM): 60.9%
viability, T/C (second compound 3.16 µM, first compound 0.03 µM): 49.7%
viability, T/C (second compound 3.16 µM, first compound 0.0949 µM): 54.9%
viability, T/C (second compound 3.16 µM, first compound 0.3 µM): 37.9%
viability, T/C (second compound 3.16 µM, first compound 0.949 µM): 32.4%
viability, T/C (second compound 3.16 µM, first compound 3 µM): 14.5%
viability, T/C (second compound 10 µM, first compound 0.00949 µM): 52.1%
viability, T/C (second compound 10 µM, first compound 0.03 µM): 61.2%
viability, T/C (second compound 10 µM, first compound 0.0949 µM): 60.9%
viability, T/C (second compound 10 µM, first compound 0.3 µM): 55.4%
viability, T/C (second compound 10 µM, first compound 0.949 µM): 38.7%
viability, T/C (second compound 10 µM, first compound 3 µM): 16.4%
